From US10597649B2, “Tau protease compositions and methods of use” (Oligomerix, Inc., priority 2011, dated 2020)

What was measured:
[1] = tested on: Tau 4R2N (amino acids 335-353) peptide substrate; test: Peptide digest HPLC assay of tau protease activity; type: biochemical, human; settings: with 11 μg tau trimer protease, 20 hr at 37° C.
Source text: N-terminal sequencing of fragments using mass spectrometry identified autoproteolytic cut sites. In particular, cutting at the Lys340-Ser341 (340KS341) cut site occurred readily. Therefore, a 19-amino acid peptide corresponding to amino acids 335G to 353L of tau protein was synthesized that contained the KS cut site (340KS341). The reaction was monitored by reverse-phase high-pressure liquid chromatography (HPLC). […] An asterisk marks a non-specific contaminant that was used as a marker. […] 10 μg of tau peptide 335-353 ([…]) (SEQ ID NO:19) was custom synthesized by Genscript (Piscataway, N.J., USA) and 1 mg was dissolved in 1 mL of buffer (25 mM Tris-HCl pH 7.4). […] 32Karat™ LC-CE System, Beckman Coulter, Inc., (Indianapolis, Ind.)] using a linear gradient of acetonitrile in 0.1% TFA 0-60% acetonitrile on an analytical C18 column (12.5 cm×2.1 mm, 5 μm, (Supelco, Bellefonte, Pa., USA). 30 μg of peptide was incubated without tau protease as a negative control and analyzed with the same method;
Cleavage of the peptide substrate for tau protease, Tau 4R2N (amino acids 335-353) […] (SEQ ID NO.19), was used to monitor activity using reverse-phase HPLC. […] The large peak in the lower trace indicated intact peptide was greatly diminished in the upper trace and replaced with two smaller peaks F1 and F2 that represent fragments generated by TP-210. […]

[2] = tested on: Human APP 667-676 peptide; test: Cleavage of APP 667-676 peptide (HPLC); type: biochemical; settings: 20 hr at 37° C.
Description: Human APP 667-676 peptide [[…](SEQ ID NO:14) (Anaspec, Fremont, Calif., USA)] was incubated 20 hr at 37° C. with or without […] tau 4R2N trimer protease and analyzed by reverse phase HPLC (SystemGold® 32Karat™ LC-CE System, Beckman Coulter, Inc.) using a linear gradient of 0 to 60% acetonitrile in 0.1% TFA on an analytical C18 column (12.5 cm×2.1 mm, […], Supelco). […] The asterisk indicates an artifactual peak unrelated to the peptide. Tau 4R2N trimer protease cut APP at the penultimate amino acid adjacent to the β-secretase (BACE) cut site thereby generating Aβ(1-42). Tau protease activity has been observed extracellularly in the CSF. Generation of Aβ(1-42) can stimulate inflammation within a neuron leading to BACE up-regulation. Furthermore Aβ(1-42) has been observed in plaques and can be converted to Aβ(1-42) by BACE cleavage of the N-terminal methionine. The implications are that tau protease may be the initial activation step for the amyloid cascade;

tau 4R2N trimer: purified disulfide-mediated trimer species of recombinant human tau 4R2N
completeness of the peptide cleavage reaction [1]: more than 90%
cutting of APP 667-676 peptide [2]: cuts APP 667-676 peptide
